Laboratory results reported in patent publication US8697692B2, “Pyrrolo [3,2-c] pyridine-4-one 2-indolinone protein kinase inhibitors” (Shanghai Hengrui Pharmaceutical Co., Ltd., priority 2006, dated 2014).

Test system: A431 cell
Experiment: Cell Proliferation Inhibition EGFR Assay (SRB method)
Assay type: cell-based, homo sapient
Settings: Homo sapiens, A-431; A431 cells, 72 hours exposure, Sulforhodamine B; read-out: IC50 (A431)
How it was run: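 A431 cells grown to ~85% confluence, then exposed 72 hours at 37° C to 6 to 7 serial concentrations of compound in DMEM/F12 + 10% FBS, final DMSO ≤0.5%. Growth measured by TCA fixation and sulforhodamine B staining; IC50 calculated from inhibition rates.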

IC50 | SMILES
0.067 µM | CCN(CC)CCN1CCc2[nH]c(/C=C3\C(=O)Nc4ncnc(Nc5ccc(F)c(Cl)c5)c43)c(C)c2C1=O [Example 12, 4-(3-Chlor O-4-fluoro-phenylamino)-5-[5-(2-diethylamino-ethyl)-3-methyl-4-oxo-4,5,6,7-tetrahydro-1H-pyrrolo[3,2-c]pyridine-2-ylmethylene]-5,7-dihydro-pyrrolo[2,3-d]pyrimidin-6-one]
0.35 µM | CCN(CC)CCN1CCc2[nH]c(/C=C3\C(=O)Nc4cccc(C5CCNCC5)c43)c(C)c2C1=O [Example 31, 5-(2-Diethylamino-ethyl)-3-methyl-2-(2-oxo-4-piperidin-4-yl-1,2-dihydro-indol-3-ylidenemethyl)-1,5,6,7-tetrahydro-pyrrolo[3,2-c]pyridin-4-one]
2.19 µM | Cc1c(/C=C2\C(=O)Nc3cccc(-c4cccc(F)c4F)c32)[nH]c2c1C(=O)N(CCN1CCCC1)CC2 [Example 59, 2-[4-(2,3-Difluoro-phenyl)-2-oxo-1,2-dihydro-indol-3-ylidenemethyl]-3-methyl-5-(2-pyrrolidin-1-yl-ethyl)-1,5,6,7-tetrahydro-pyrrolo[3,2-c]pyridin-4-one]
15.9 µM | Cc1c(/C=C2\C(=O)Nc3ncc(Br)cc32)[nH]c2c1C(=O)N(CCN1CCOCC1)CC2 [Example 50, 2-(5-Bromo-2-oxo-1,2-dihydro-pyrrolo[2,3-b]pyridin-3-ylidenemethyl)-3-methyl-5-(2-morpholin-4-yl-ethyl)-1,5,6,7-tetrahydro-pyrrolo[3,2-c]pyridin-4-one]
10.2 µM | Cc1c(/C=C2\C(=O)Nc3ccc(Cl)cc32)[nH]c2c1C(=O)N(CCN1CCOCC1)CC2 [Example 16, 2-(5-Chloro-2-oxo-1,2-dihydro-indol-3-ylidenemethyl)-3-methyl-5-(2-morpholin-4-yl-ethyl)-1,5,6,7-tetrahydro-pyrrolo[3,2-c]pyridin-4-one]
0.33 µM | Cc1c(/C=C2\C(=O)Nc3ncnc(Nc4ccc(F)c(Cl)c4)c32)[nH]c2c1C(=O)N(CCN1CCOCC1)CC2 [Example 24, 4-(3-Chloro-4-fluoro-phenylamino)-5-[3-methyl-5-(2-morpholin-4-yl-ethyl)-4-oxo-4,5,6,7-tetrahydro-1H-pyrrolo[3,2-c]pyridine-2-ylmethylenene]-5,7-dihydro-pyrrolo[2,3-d]pyrimidin-6-one]
0.38 µM | CCN(CC)CCN1CCc2[nH]c(/C=C3\C(=O)Nc4cccc(-c5cccc(F)c5F)c43)c(C)c2C1=O [Example 39, 5-(2-diethylamino-ethyl)-2-[4-(2,3-difluoro-phenyl)-2-oxo-1,2-dihydro-indol-3-ylidenemethyl]-3-methyl-1,5,6,7-tetrahydro-pyrrolo[3,2-c]pyridin-4-one]
7.32 µM | CCN(CC)CCN1CCc2[nH]c(/C=C3\C(=O)Nc4cccc(-c5cccc(Cl)c5F)c43)c(C)c2C1=O [Example 36, 2-[4-(3-Chloro-2-fluoro-phenyl)-2-oxo-1,2-dihydro-indol-3-ylidenemethyl]-5-(2-diethylamino-ethyl)-3-methyl-1,5,6,7-tetrahydro-pyrrolo[3,2-c]pyridin-4-one]
3.85 µM | CCN(CC)CCN1CCc2[nH]c(/C=C3\C(=O)Nc4cccc(CCO)c43)c(C)c2C1=O [Example 37, 5-(2-Diethylamino-ethyl)-2-[4-(2-hydroxy-ethyl)-2-oxo-1,2-dihydro-indol-3-ylidenemethyl]-3-methyl-1,5,6,7-tetrahydro-pyrrolo[3,2-c]pyridin-4-one]
4.35 µM | CCN(CC)CCN1CCc2[nH]c(/C=C3\C(=O)Nc4ccc(OC)cc43)c(C)c2C1=O [Example 35, 5-(2-Diethylamino-ethyl)-2-(5-methoxy-2-oxo-1,2-dihydro-indol-3-ylidenemethyl)-3-methyl-1,5,6,7-tetrahydro-pyrrolo[3,2-c]pyridin-4-one]
1.9 µM | Cc1c(/C=C2\C(=O)Nc3cccc(C4CCNCC4)c32)[nH]c2c1C(=O)N(CCN1CCOCC1)CC2 [Example 52, 3-Methyl-5-(2-morpholin-4-yl-ethyl)-2-(2-oxo-4-piperidin-4-yl-1,2-dihydro-indol-3-ylidenemethyl)-1,5,6,7-tetrahydro-pyrrolo[3,2-c]pyridin-4-one]
0.33 µM | CCN(CC)CCN1CCc2[nH]c(/C=C3\C(=O)Nc4cccc(Br)c43)c(C)c2C1=O [Example 30, 2-(4-Bromo-2-oxo-1,2-dihydro-indol-3-ylidenemethyl)-5-(2-diethylamino-ethyl)-3-methyl-1,5,6,7-tetrahydro-pyrrolo[3,2-c]pyridin-4-one]
16.5 µM | Cc1c(/C=C2\C(=O)Nc3cccc(CCO)c32)[nH]c2c1C(=O)N(CCN1CCOCC1)CC2 [Example 42, 2-[4-(2-Hydroxy-ethyl)-2-oxo-1,2-dihydro-indol-3-ylidenemethyl]-3-methyl-5-(2-morpholin-4-yl-ethyl)-1,5,6,7-tetrahydro-pyrrolo[3,2-c]pyridin-4-one]
3.23 µM | CCN(CC)CCN1CCc2[nH]c(/C=C3\C(=O)Nc4cccc(-c5ccc(Cl)cc5F)c43)c(C)c2C1=O [Example 34, 2-[4-(4-Chloro-2-fluoro-phenyl)-2-oxo-1,2-dihydro-indol-3-ylidenemethyl]-5-(2-diethylamino-ethyl)-3-methyl-1,5,6,7-tetrahydro-pyrrolo[3,2-c]pyridin-4-one]
